Assays:
[1] = tested on: ETR1; test: Yeast 2-hybrid PLS-ETR1; type: binding, Arabidopsis; settings: preliminary yeast 2-hybrid, YRG-2 strain
Protocol: The GAL4 2-hybrid phagemid vector system was used to detect protein–protein interactions in vivo in yeast, using the reporter genes β-galactosidase (lacZ) and histidine (HIS3) in the YRG-2 yeast strain, essentially as described previously ([Zhong et al., 2008]). DNA sequences encoding the target (ETR1) and bait (PLS) were inserted into the pAD-GAL4-2.1 A and pBD-GAL4 Cam phagemid vectors, respectively, and expressed as hybrid proteins. The hybrid proteins were then assayed for protein–protein interaction.
DNA sequences encoding the target and bait proteins were prepared by PCR amplification using primers designed specifically for the target (ETR1) and bait (PLS). Each set of primers contained specific endonuclease recognition sites on the ends corresponding to the restriction sites in the MCS of the pAD-GAL4-2.1 A and pBD-GAL4 Cam phagemid vectors. The DNA constructs for the target (ETR1) and bait (PLS) with specific restriction sites on the ends were then transformed into the TOPO 2.1 vector, and the sequence of the amplified DNA was confirmed by sequencing with M13 forward (CTG GCC GTC GTT TTA C) and M13 reverse (CAG GAA ACA GCT ATG AC) primers. […] The DNA sequences encoding the target (ETR1) and bait (PLS) were then ligated into the same reading frame as the GAL4 AD of the pAD-GAL4-2.1 phagemid vector and the GAL4 BD of the pBD-GAL4 Cam phagemid vector. […]

[2] = Anaerobic Cu(I) titration in competition with bicinchoninic acid (BCA); type: binding
Protocol: Freeze-dried synthetic PLS peptide (Cambridge Research Biochemicals) was dissolved in DMSO. An aliquot was added to aqueous buffer (10 mM HEPES [pH 7], 20 mM NaCl, 80 mM KCl), and absorbance was recorded at 280 nm. PLS concentration was estimated from the absorbance and the ProtParam estimated extinction coefficient of 2980 M^−1 cm^−1. Concurrently, a sample was submitted for quantitative amino acid analysis (Abingdon Health Laboratory Services). From this analysis, a conversion factor of 2.27 was generated, which was applied to the concentrations determined by A280 nm.
A fusion of PLS to MBP was created using the NEBExpress MBP Fusion and Purification System. Two complementary oligonucleotide primers encoding PLS (optimized for expression in E. coli) were annealed and inserted into the pMal-c5x plasmid at the XmnI and SalI insertion sites. The three mutants MBP:PLS(C6S), MBP:PLS(C17S), and MBP:PLS(C6S/C17S) were created by site-directed mutagenesis (QuikChange II, Agilent). E. coli NEB Express containing the pMal plasmid with the correct MBP:PLS mutant was used to overexpress each protein. Harvested cells were resuspended in 20 mM Tris–HCl (pH 7.4), 200 mM NaCl, and 1 mM EDTA, then frozen at −20°C overnight. Cells were defrosted in cold H2O, sonicated, purified by ammonium sulfate precipitation (where MBP-PLS precipitates >60% saturation), separated on an MBP-Trap column (GE Healthcare), and eluted using buffer containing 10 mM maltose. MBP:PLS-containing fractions were pooled and concentrated using a centrifugal concentrator (Corning, Spin-X UF 30 kDa) and buffer exchanged by desalting column into a metal-free buffer of 20 mM HEPES (pH 7.0) and 50 mM NaCl in an anaerobic chamber (Belle Technology). Mutants containing thiols were quantified using Ellman’s assay, and MBP:PLS(C6S/C17S), which lacks all thiols, was quantified using the Bradford assay alone. Samples were also analyzed for metal content by ICP–MS to ensure >95% apo-protein.
All Cu(I) titration experiments were carried out in an anaerobic chamber (Belle Technology) using metal-free CHELEX-treated, degassed buffers. For titration experiments with Cu(I), aqueous CuSO4 stock was quantified in advance by ICP–MS and diluted to working concentrations. The reductant NH2OH was included at a final concentration of 1 mM to maintain Cu(I) in its reduced state. Proteins were diluted in buffer to the final concentration specified in each titration in air-tight quartz cuvettes (Helma), and after addition of probe to the concentration specified, titrated with CuSO4. After each addition, solutions were thoroughly mixed and absorbance spectra recorded using a Lambda 35 UV/Vis spectrophotometer (PerkinElmer). Titration isotherm data were fitted using simulated affinity curves with DynaFit ([Kuzmič, 2009]).

[3] = Titration of PLS in the presence of BCA2-Cu(I) complex; type: binding; settings: PLS serially diluted from 496 µM to 214 nM; 125 µM BCA, 50 µM CuCl, 50 mM HEPES, 150 mM NaCl, 20 mM ascorbate, pH 7.6; A562 nm, n = 3
Protocol: Figure S9. Titration of PLS in the presence of BCA2-Cu(I)-Complex.
A solution of synthetic PLS in 50 µl buffer (50 mM HEPES, 150 mM NaCl, pH 7.6) was serially diluted from 496 µM to 214 nM. After the addition of 50 µl BCA2-Cu(I) buffer (50 mM HEPES, 150 mM NaCl, 20 mM ascorbate, 125 µM BCA, 50 µM CuCl, pH 7.6) the absorbance at 562 nm was measured. Discoloration of the pink BCA2-Cu(I) complex visible in the decrease of absorption at higher peptide concentration indicates […]
chelator BCA. Bars represent means ± SD, n = 3.
(1 picture or pasted object on this page, not shown here)

[4] = 44.8 μM synthetic PLS, 87 μM BCA, anaerobic

Substance: PLS(FL): full-length 36-amino-acid PLS peptide from Arabidopsis (MKPRLCFNFRRRSISPCYISISYLLVAKLFKLFKIH)
- interaction with ETR1 [1]: interacts with ETR1
- Cu(I) affinity relative to BCA [2, 4]: tighter than that of BCA
- increase in Cu(I) concentration required to saturate BCA [2, 4]: ~20 µM
- withholding of Cu(I) from BCA ([2]; synthetic peptide, mutant 40 μM, BCA 93.3 μM, mean ± SD, n = 3 (supplemental Figure 10)): withholds Cu(I) from BCA
- competition for copper with BCA [3]: able to effectively compete and remove copper
